The source of these data is patent US20230040909A1 (priority 2019, published 2023).

In brackets after ≈: the same amount, converted by molar mass. Like-named read-outs stand apart in the source and are kept apart here.

The test system of series [1] is M. tb H37Rv. Description: microbe, parasite or virus in culture. The series is classed as cell-based, Mycobacterium tuberculosis. As to conditions: for MIC: Mycobacterium tuberculosis, H37RV, read-out: M. tb H37Rv: MIC-MABA.
The test system of the next series is VERO Cell. The series can be described thus: VERO cell cytotoxicity. It is filed as cell-based. From the text: (§1) The procedures described in Falzari 2005 were used to generate the data shown in column 2 of Table 4.
For a further series, the system named is Mycobacterium abscessus. The series can be described thus: M. ab_ATCC MIC MHII. The settings on record: for MIC: Mycobacteroides abscessus, read-out: M. ab_ATCC: MIC MHII: MIC. The series is classed as cell-based. An excerpt: The procedure described in Franz 2017 was used to generate the data shown in column 5 of Table 4.
A further series concerns the target hNav1.5 Peak (Homo sapiens, UniProt Q14524). Description: In vitro assessment of ion channels: hNav1.5 Peak. It is filed as biochemical.
A short description of series [2]: QTc (QTcV) prolongation in dogs after oral dosing, with plasma level at 1 hr. The settings on record: for concentration at 1 h: dog, plasma, po; for Max. QTcv / QTcV @ 1 hr / C1 hr / corrected QT (QTc) prolongation in dogs: dogs; for Max. QTcv / QTcV @ 1 hr / C1 hr: PO; for QTcV @ 1 hr / C1 hr: 1 hr.
In the next series the target is hNav1.5 Late (Homo sapiens, UniProt Q14524). The series can be described thus: In vitro assessment of ion channels: hNav1.5 Late. It is filed as biochemical.
The target in another series is hKCNQ1/MinK (Homo sapiens, UniProt P51787). The series can be described thus: biochemical. It is filed as biochemical.
The next series concerns the target hCav1.2 (Homo sapiens, UniProt Q13936). Description: biochemical.
The target in another series is hERG (Homo sapiens, UniProt Q12809). The series can be described thus: biochemical.
Chain of hERG (Q12809 whole entry): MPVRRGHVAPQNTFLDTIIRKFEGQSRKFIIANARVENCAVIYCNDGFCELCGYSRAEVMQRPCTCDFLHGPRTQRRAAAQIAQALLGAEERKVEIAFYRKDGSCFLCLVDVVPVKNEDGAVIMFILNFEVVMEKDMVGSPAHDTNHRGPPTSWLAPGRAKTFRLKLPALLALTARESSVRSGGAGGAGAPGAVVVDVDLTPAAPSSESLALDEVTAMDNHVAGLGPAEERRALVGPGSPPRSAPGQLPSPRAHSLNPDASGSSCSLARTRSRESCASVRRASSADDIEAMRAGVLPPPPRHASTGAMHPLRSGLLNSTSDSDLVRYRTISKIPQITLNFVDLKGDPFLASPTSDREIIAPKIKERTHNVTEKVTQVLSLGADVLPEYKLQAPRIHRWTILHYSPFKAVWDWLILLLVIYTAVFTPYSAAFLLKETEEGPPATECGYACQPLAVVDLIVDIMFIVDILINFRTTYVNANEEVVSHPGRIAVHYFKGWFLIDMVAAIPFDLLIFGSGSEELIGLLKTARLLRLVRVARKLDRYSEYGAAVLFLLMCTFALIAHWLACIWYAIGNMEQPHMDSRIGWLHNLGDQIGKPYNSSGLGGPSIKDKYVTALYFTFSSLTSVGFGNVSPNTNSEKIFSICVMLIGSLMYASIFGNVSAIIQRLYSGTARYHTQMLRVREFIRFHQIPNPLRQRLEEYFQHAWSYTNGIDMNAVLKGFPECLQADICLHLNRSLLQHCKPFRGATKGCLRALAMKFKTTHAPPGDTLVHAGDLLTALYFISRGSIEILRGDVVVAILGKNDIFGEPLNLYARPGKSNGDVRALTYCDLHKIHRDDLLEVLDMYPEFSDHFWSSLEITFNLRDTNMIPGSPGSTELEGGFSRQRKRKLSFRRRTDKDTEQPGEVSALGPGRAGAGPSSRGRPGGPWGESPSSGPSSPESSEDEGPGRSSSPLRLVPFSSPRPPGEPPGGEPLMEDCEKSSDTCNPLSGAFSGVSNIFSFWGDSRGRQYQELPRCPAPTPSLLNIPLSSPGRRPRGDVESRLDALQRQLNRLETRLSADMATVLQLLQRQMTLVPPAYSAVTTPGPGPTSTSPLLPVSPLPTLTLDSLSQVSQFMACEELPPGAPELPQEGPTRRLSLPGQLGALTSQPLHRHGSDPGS
The test system of series [3] is M. tb H37Rv. It is filed as cell-based, Mycobacterium tuberculosis.
The next series in a line: VERO cell cytotoxicity. The settings on record: African green monkey, VERO cells. It is filed as cell-based.
Text: as §1

For series [4], the system named is M. tb H37Rv. Description: microbe, parasite or virus in culture. The settings on record: Mycobacterium tuberculosis, read-out: M. tb H37Rv: MIC-LORA. It is filed as cell-based.
[5] abbreviates: Table 3, read-out: hNav1.5 Late IC50.

Chain of hCav1.2 (Q13936 whole entry): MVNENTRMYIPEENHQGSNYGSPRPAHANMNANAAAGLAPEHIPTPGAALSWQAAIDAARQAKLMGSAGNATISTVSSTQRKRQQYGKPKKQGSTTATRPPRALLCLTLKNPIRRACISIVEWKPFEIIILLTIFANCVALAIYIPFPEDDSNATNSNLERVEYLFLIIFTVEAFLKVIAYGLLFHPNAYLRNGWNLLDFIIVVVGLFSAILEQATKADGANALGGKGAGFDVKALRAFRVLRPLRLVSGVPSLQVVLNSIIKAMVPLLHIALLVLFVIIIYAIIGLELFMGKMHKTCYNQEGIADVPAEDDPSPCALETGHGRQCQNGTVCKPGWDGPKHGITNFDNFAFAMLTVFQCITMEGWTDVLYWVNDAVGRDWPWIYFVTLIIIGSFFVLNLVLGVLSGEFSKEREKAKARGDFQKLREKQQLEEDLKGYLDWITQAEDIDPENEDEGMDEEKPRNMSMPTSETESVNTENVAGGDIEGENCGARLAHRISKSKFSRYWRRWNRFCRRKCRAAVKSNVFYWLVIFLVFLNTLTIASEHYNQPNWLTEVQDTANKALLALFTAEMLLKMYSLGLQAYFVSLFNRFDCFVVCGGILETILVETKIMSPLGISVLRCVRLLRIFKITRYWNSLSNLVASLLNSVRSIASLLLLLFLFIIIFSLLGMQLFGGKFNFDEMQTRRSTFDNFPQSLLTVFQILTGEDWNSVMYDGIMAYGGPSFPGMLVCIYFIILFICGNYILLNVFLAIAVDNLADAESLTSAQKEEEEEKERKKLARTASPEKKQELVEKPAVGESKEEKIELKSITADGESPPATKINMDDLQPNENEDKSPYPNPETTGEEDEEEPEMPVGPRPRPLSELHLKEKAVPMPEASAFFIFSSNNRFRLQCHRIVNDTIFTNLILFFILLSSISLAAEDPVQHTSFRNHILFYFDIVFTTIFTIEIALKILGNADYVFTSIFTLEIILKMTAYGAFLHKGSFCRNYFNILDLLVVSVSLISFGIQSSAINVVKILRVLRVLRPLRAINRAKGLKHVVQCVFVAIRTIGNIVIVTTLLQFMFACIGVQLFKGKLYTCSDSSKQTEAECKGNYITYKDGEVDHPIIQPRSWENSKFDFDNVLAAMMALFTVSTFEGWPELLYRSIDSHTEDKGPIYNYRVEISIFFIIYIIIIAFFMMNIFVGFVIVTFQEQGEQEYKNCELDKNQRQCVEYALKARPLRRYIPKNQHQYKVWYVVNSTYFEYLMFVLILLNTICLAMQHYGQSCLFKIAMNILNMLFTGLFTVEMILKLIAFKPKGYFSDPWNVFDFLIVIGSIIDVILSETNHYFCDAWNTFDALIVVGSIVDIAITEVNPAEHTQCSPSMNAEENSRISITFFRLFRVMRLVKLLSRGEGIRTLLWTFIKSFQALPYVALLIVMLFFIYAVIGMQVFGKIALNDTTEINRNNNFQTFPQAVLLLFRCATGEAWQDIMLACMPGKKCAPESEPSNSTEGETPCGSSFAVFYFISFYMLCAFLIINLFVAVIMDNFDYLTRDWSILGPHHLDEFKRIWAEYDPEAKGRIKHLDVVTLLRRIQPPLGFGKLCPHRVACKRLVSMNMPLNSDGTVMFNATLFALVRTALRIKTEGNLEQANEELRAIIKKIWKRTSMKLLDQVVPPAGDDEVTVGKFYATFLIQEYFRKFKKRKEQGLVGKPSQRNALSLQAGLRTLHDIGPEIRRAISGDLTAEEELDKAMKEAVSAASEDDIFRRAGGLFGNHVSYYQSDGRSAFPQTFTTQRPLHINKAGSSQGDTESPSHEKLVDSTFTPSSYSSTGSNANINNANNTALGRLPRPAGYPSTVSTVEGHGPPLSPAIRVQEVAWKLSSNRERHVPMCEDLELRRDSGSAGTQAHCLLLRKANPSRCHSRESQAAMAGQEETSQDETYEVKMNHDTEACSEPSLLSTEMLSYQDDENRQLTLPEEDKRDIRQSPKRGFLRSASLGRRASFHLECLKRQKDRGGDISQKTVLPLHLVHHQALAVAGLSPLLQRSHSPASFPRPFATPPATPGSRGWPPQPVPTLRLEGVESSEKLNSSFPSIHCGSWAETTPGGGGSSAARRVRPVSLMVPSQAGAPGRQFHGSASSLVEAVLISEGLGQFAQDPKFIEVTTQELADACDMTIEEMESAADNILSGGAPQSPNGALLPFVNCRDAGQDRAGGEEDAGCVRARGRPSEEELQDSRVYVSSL
Chain of hCav1.2 (Q08289 whole entry partner): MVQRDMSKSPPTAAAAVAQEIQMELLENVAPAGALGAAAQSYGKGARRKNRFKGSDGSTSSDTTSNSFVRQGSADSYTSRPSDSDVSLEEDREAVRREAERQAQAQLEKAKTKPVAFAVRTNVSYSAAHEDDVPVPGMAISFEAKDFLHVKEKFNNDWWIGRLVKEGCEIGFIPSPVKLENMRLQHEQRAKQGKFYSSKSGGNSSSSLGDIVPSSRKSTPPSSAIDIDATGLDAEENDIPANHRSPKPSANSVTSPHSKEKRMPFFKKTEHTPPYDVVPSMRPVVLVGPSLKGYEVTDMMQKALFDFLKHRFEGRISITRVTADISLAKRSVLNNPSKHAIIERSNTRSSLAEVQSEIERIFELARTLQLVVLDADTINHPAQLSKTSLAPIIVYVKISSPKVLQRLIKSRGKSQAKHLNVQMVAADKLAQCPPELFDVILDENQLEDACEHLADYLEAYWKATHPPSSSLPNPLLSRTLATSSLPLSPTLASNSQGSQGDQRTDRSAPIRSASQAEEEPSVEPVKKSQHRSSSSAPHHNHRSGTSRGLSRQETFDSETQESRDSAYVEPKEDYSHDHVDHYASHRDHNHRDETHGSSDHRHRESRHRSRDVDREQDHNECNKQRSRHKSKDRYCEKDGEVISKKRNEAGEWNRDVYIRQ
Chain of hCav1.2 (P54289 25-946 partner limits assumed): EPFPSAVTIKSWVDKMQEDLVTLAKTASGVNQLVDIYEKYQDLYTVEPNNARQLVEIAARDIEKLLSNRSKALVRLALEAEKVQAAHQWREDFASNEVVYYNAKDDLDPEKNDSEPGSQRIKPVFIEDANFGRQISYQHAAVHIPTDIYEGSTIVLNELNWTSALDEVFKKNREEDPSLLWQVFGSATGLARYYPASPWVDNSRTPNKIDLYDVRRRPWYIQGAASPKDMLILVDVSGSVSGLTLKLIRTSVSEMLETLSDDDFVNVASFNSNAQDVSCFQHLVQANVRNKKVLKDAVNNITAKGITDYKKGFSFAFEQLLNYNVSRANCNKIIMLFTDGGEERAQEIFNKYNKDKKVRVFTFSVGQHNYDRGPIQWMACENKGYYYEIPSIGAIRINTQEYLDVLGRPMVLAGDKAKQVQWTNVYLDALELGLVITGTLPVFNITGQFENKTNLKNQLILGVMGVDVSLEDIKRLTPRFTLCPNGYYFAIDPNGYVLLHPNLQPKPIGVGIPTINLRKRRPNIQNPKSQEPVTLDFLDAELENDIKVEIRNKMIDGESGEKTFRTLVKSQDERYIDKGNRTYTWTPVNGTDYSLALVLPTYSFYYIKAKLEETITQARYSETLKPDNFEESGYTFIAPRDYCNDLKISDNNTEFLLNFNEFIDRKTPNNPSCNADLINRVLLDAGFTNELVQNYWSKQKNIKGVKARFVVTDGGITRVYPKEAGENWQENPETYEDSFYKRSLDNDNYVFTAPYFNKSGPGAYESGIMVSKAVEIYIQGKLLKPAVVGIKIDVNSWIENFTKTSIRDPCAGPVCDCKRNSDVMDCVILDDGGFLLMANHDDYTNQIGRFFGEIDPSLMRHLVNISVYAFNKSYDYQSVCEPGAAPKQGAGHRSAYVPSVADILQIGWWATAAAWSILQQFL
Chain of hCav1.2 (P54289 947-1103 partner limits assumed): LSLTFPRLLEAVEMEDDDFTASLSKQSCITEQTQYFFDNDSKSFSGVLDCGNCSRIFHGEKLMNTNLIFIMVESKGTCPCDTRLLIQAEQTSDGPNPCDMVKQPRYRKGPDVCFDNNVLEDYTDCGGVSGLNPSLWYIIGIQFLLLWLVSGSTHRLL

In the case of `Cc1cc(C)c2cc(C(=O)NC3CC[Si](C)(C)C3)[nH]c2c1` (single isomer, unassigned) [MPL-296A], the “M. tb H37Rv: MIC-MABA” value with M. tb H37Rv [1] is recorded as 0.0007- μg/mL. For the same molecule, the “VERO Cell: Cytotoxicity-IC50” value in the series with VERO Cell was more than 64 µg/mL. Besides, the “M. ab_ATCC: MIC MHII: MIC” value with Mycobacterium abscessus was less than 0.063 µg/mL.
With `Cc1cc(C)c2cc(C(=O)NC3CC[Si](C)(C)C3)[nH]c2c1` (single isomer, unassigned) [MPL-296B], in the series on M. tb H37Rv [1], the “M. tb H37Rv: MIC-MABA” value was 0.052- μg/mL. The “VERO Cell: Cytotoxicity-IC50” value in the series on VERO Cell was more than 64 µg/mL. Besides, the “M. ab_ATCC: MIC MHII: MIC” value with Mycobacterium abscessus amounted to 0.5 µg/mL.
Broadly, the IC50 is the midpoint of a concentration-inhibition curve. `C[C@@H]1C(NC(=O)c2cc3c(F)cc(F)cc3[nH]2)CC2C[C@@H]1C2(C)C` (stereo partly shown) [JS-2-02]: the 50% inhibitory concentration (IC50) at hNav1.5 Peak (Table 2) was 5.17 µM; on hNav1.5 Late (Table 2, read-out: hNav1.05 Late IC50), more than 10 µM; at hKCNQ1/MinK (Table 2) it was 6.2 µM; on hCav1.2 (Table 2), more than 10 µM; on hERG (hERG IC50, Table 2), more than 10 µM. This molecule also yielded a concentration at 1 h in [2] (50 mg/kg) of 1200 ng/mL. Further, the entries for the “Max. QTcv” value in [2] (50 mg/kg) and in [2] (150 mg/kg) were 6.8 ms and 37 ms, respectively. Further, the “QTcV @ 1 hr” value was determined as 1.2 ms in [2] (50 mg/kg) and 2.8 ms in series [2] (150 mg/kg). The same molecule gave a C1 hr in [2] (150 mg/kg) of 1100 ng/mL.
As to `C[Si]1(C)CCC(NC(=O)c2cc3c(Cl)cc(Cl)cc3[nH]2)CC1` [MPL-203, 4,6-dichloro-N-(1,1-dimethylsilinan-4-yl)-1H-Indole-2-carboxamide], the concentration for half-maximal inhibition (IC50) on hNav1.5 Peak (Table 3) was more than 10 µM; at hNav1.5 Late (setting [5]), more than 10 µM; against hKCNQ1/MinK (Table 3), 2.71 µM; at hCav1.2 (Table 3) it was more than 10 µM; against hERG (hERG IC50, Table 3), more than 10 µM; in “VERO cell cytotoxicity”, more than 32 µg/mL. Moreover, on hKCNQ1/MinK, the “hKCNQ1 channel inhibition” value was “do not inhibit the hKCNQ1 channel”. In addition, the MIC is 0.0033 µg/mL (≈ 0.00929 µM) in the series with M. tb H37Rv [1], 0.003 µg/mL (≈ 0.00844 µM) against M. tb H37Rv [3], more than 64 µg/mL in the series with Mycobacterium abscessus and more than 32 µg/mL with M. tb H37Rv [4].
As to `C[Si]1(C)CCC(NC(=O)c2cc3c(F)cc(F)cc3[nH]2)CC1` [MPL-204, N-(1,1-dimethylsilinan-4-yl)-4,6-difluoro-1H-indole-2-carboxamide], the 50% inhibitory concentration (IC50) at hNav1.5 Peak (Table 3) is more than 10 µM; on hNav1.5 Late (setting [5]), more than 10 µM; on hKCNQ1/MinK (Table 3) it was 7.56 µM; at hCav1.2 (Table 3), more than 10 µM; at hERG (hERG IC50, Table 3) it was more than 10 µM; in the series “VERO cell cytotoxicity” it was more than 32 µg/mL. At hKCNQ1/MinK, the “hKCNQ1 channel inhibition” value is given as “do not inhibit the hKCNQ1 channel”. The MIC was 0.0035 µg/mL (≈ 0.0109 µM) in the series with M. tb H37Rv [1], 0.003 µg/mL (≈ 0.0093 µM) with M. tb H37Rv [3], more than 64 µg/mL in the series on Mycobacterium abscessus and more than 32 µg/mL in the series on M. tb H37Rv [4].
On to `Cc1cc(C#N)c2cc(C(=O)NC3CC[Si](C)(C)CC3)[nH]c2c1` [MPL-344, 4-cyano-N-(1,1-dimethylsilinan-4-yl)-6-methyl-1H-indole-2-carboxamide], for which the MIC in the series on M. tb H37Rv [1] was 0.008 µg/mL (≈ 0.0246 µM); with Mycobacterium abscessus, more than 64 µg/mL; in the series with M. tb H37Rv [4] it was more than 20 µg/mL. Besides, the IC50 in the series “VERO cell cytotoxicity” was more than 20 µg/mL.
With `CC(C)Oc1cc(F)cc2[nH]c(C(=O)NC3CC[Si](C)(C)CC3)cc12` [MPL-383, N-(1,1-dimethylsilinan-4-yl)-6-fluoro-4-isopropoxy-1H-indole-2-carboxamide], the MIC in the series on M. tb H37Rv [1] is 0.0148 µg/mL (≈ 0.0408 µM); with Mycobacterium abscessus it was more than 64 µg/mL; with M. tb H37Rv [4], more than 20 µg/mL. In “VERO cell cytotoxicity”, this molecule had a concentration for half-maximal inhibition (IC50) of more than 20 µg/mL.
Turning to `COCCOc1cc(F)cc2[nH]c(C(=O)NC3CC[Si](C)(C)CC3)cc12` [MPL-384, N-(1,1-dimethylsilinan-4-yl)-6-fluoro-4-(2-methoxyethoxy)-1H-indole-2-carboxamide], the results for the MIC in the series on M. tb H37Rv [1], in the series with Mycobacterium abscessus and in the series on M. tb H37Rv [4] were 0.0308 µg/mL (≈ 0.0814 µM), more than 64 µg/mL and 9.36 µg/mL (≈ 24.7 µM), respectively. The molecule also registered an IC50 in the series “VERO cell cytotoxicity” of more than 20 µg/mL.
As to `Cc1cc(C(F)(F)F)c2cc(C(=O)NC3CC[Si](C)(C)CC3)[nH]c2c1` [MPL-385, N-(1,1-dimethylsilinan-4-yl)-6-methyl-4-(trifluoromethyl)-1H-indole-2-carboxamide], the MIC is less than 0.004 µg/mL in the series on M. tb H37Rv [1], 64 µg/mL (≈ 174 µM) in the series with Mycobacterium abscessus and 12.7 µg/mL (≈ 34.5 µM) with M. tb H37Rv [4]. Also, the IC50 in “VERO cell cytotoxicity” is more than 20 µg/mL.
The matching figures for `Cc1cc(C(F)(F)F)c2cc(C(=O)NC3CCC[Si](C)(C)CCC3)[nH]c2c1` [MPL-386, N-(1,1-dimethylsilocan-5-yl)-6-methyl-4-(trifluoromethyl)-1H-indole-2-carboxamide]: less than 0.004 µg/mL, more than 64 µg/mL, more than 20 µg/mL and more than 20 µg/mL.
As to `C[Si]1(C)CCC(NC(=O)c2cc3c(F)cc(F)cc3[nH]2)C1` (stereo not shown) [MPL-400, N-(1,1-dimethylsilolan-3-yl)-4,6-difluoro-1H-indole-2-carboxamide], the figures for the MIC in the series on M. tb H37Rv [1], in the series on Mycobacterium abscessus and in the series on M. tb H37Rv [4] were 0.0113 µg/mL (≈ 0.0366 µM), more than 64 µg/mL and more than 20 µg/mL, respectively. In addition, the IC50 in “VERO cell cytotoxicity” is more than 20 µg/mL.
Turning to `Cc1cc(F)c2cc(C(=O)NC3CC[Si](C)(C)CC3)[nH]c2c1` [MPL-470, N-(1,1-dimethylsilinan-4-yl)-4-fluoro-6-methyl-1H-indole-2-carboxamide], the MIC in the series with M. tb H37Rv [1] was 0.007 µg/mL (≈ 0.022 µM); with Mycobacterium abscessus, more than 64 µg/mL; in the series with M. tb H37Rv [4], more than 20 µg/mL. In addition, the IC50 in the series “VERO cell cytotoxicity” is more than 20 µg/mL.
Consider `CC1(C)CCC(NC(=O)c2cc3c(Cl)cc(Cl)cc3[nH]2)CC1` [NITD-304], for which the half-maximal inhibitory concentration (IC50) is more than 10 µM at hNav1.5 Peak; 6.4 µM at hNav1.5 Late (read-out: hNav1.05 Late IC50); 0.71 µM on hKCNQ1/MinK; 2.01 µM on hCav1.2 (Table 2); 2.01 µM against hCav1.2 (Table 3); more than 10 µM on hERG (hERG IC50, Table 2). In addition, the IC50 against hERG (hERG IC50, Table 3) was more than 10 µM; on hERG (hERG IC50, stated in text) it was more than 50 µM. The same molecule came in with a concentration at 1 h in series [2] (150 mg/kg) of 300 ng/mL. Also, the “corrected QT (QTc) prolongation in dogs” value in [2] is recorded as “dramatic corrected QT (QTc) prolongation”. In addition, the “Max. QTcv” value in series [2] (50 mg/kg) is listed as 49 ms; in [2] (150 mg/kg) it was 120 ms. For the same molecule, in series [2] (50 mg/kg), the C1 hr was found to be 250 ng/mL. Also, the “QTcV @ 1 hr” value in [2] (50 mg/kg) was -0.6 ms; in [2] (150 mg/kg), 0.3 ms.
As for `CC1(C)CCC(NC(=O)c2cc3c(F)cc(F)cc3[nH]2)CC1` [NITD-349], the half-maximal inhibitory concentration (IC50) is more than 10 µM on hNav1.5 Peak; more than 10 µM on hNav1.5 Late (read-out: hNav1.05 Late IC50); more than 10 µM on hNav1.5 Late (read-out: hNav1.5 Late IC50); 0.058 µM at hKCNQ1/MinK; 9.53 µM at hCav1.2 (Table 2); 9.5 µM on hCav1.2 (Table 3). Besides, the concentration for half-maximal inhibition (IC50) on hERG (hERG IC50, Table 2) is more than 10 µM; at hERG (hERG IC50, Table 3), more than 10 µM; at hERG (hERG IC50, stated in text) it was more than 50 µM. The “corrected QT (QTc) prolongation in dogs” value in [2] was “dramatic corrected QT (QTc) prolongation”. Moreover, the “Max. QTcv” value in series [2] (50 mg/kg) and in series [2] (150 mg/kg) was 170 ms in each case. The same molecule had a C1 hr in [2] (50 mg/kg) of 790 ng/mL. Besides, the “QTcV @ 1 hr” value worked out at 11 ms in series [2] (50 mg/kg) and 13.6 ms in series [2] (150 mg/kg).
